In ChEMBL document CHEMBL1201862, “PubChem BioAssay data set” (2004):
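Dose response: 5 concentrations. Exposure: 48 h. Format: 96-well plates. Endpoint: linear interpolation; highest concentration if not reached. GI50 = concentration required for 50% inhibition of growth.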 Active and inactive are the calls of the source. Cut-off read from the data, not from the text of the source: active = GI50 up to about 1.1 µM and inactive = higher.

How the values were obtained:
Experiment in all cases: growth of human tumour cells (NCI), 48 h
786-0 = test system: 786-0
KM-20L2 = test system: KM-20L2
UACC-257 = test system: UACC-257
SW-620 = test system: SW-620
OVCAR-5 = test system: OVCAR-5
A498 = test system: A498
SNB-19 = test system: SNB-19
KM12 = test system: KM12
OVCAR-8 = test system: OVCAR-8
RXF 393 = test system: RXF 393
Malme-3M = test system: Malme-3M
SK-OV-3 = test system: SK-OV-3
HOP-18 = test system: HOP-18
EKVX = test system: EKVX
A549 = test system: A549
SF-295 = test system: SF-295
NCI-H522 = test system: NCI-H522
OVCAR-3 = test system: OVCAR-3
HCC 2998 = test system: HCC 2998
U-251 = test system: U-251
SK-MEL-28 = test system: SK-MEL-28
RPMI-8226 = test system: RPMI-8226
NCI-H226 = test system: NCI-H226
SR = test system: SR
TK-10 = test system: TK-10
SNB-75 = test system: SNB-75
LXFL 529 = test system: LXFL 529
LOX IMVI = test system: LOX IMVI
NCI-H23 = test system: NCI-H23
DLD-1 = test system: DLD-1
SN12C = test system: SN12C
ACHN = test system: ACHN
MOLT-4 = test system: MOLT-4
DMS-273 = test system: DMS-273
COLO 205 = test system: COLO 205
SNB-78 = test system: SNB-78
HCT-116 = test system: HCT-116
M14 = test system: M14
NCI-H460 = test system: NCI-H460
HT-29 = test system: HT-29
SF-539 = test system: SF-539
HOP-62 = test system: HOP-62
UACC-62 = test system: UACC-62
HL-60 = test system: HL-60
SK-MEL-2 = test system: SK-MEL-2
CAKI-1 = test system: CAKI-1
CCRF-CEM = test system: CCRF-CEM
K562 = test system: K562
XF498 = test system: XF498
OVCAR-4 = test system: OVCAR-4
IGROV-1 = test system: IGROV-1
HOP-92 = test system: HOP-92
SF-268 = test system: SF-268
UO-31 = test system: UO-31
DMS-114 = test system: DMS-114
SK-MEL-5 = test system: SK-MEL-5
M19-MEL = test system: M19-MEL
HCT-15 = test system: HCT-15

Measured: GI50

COc1cc(CCC(=O)NS(=O)(=O)c2ccccc2)cc(OC)c1OC
inactive: 786-0 > 100 µM | KM-20L2 > 100 µM | UACC-257 > 100 µM | SW-620 > 100 µM | OVCAR-5 > 100 µM | A498 > 100 µM | SNB-19 > 100 µM | KM12 > 100 µM | OVCAR-8 > 100 µM | RXF 393 > 100 µM | Malme-3M > 100 µM | SK-OV-3 > 100 µM | HOP-18 72.6 µM | EKVX > 100 µM | A549 > 100 µM | SF-295 > 100 µM | NCI-H522 > 100 µM | OVCAR-3 > 100 µM | HCC 2998 > 100 µM | U-251 > 100 µM | SK-MEL-28 > 100 µM | RPMI-8226 > 100 µM | NCI-H226 > 100 µM | SR > 100 µM | TK-10 > 100 µM | SNB-75 61.4 µM | LXFL 529 > 100 µM | LOX IMVI > 100 µM | NCI-H23 > 100 µM | DLD-1 > 100 µM | SN12C > 100 µM | ACHN > 100 µM | MOLT-4 > 100 µM | DMS-273 > 100 µM | COLO 205 > 100 µM | SNB-78 > 100 µM | HCT-116 > 100 µM | M14 > 100 µM | NCI-H460 > 100 µM | HT-29 > 100 µM | SF-539 > 100 µM | HOP-62 > 100 µM | UACC-62 > 100 µM | HL-60 > 100 µM | SK-MEL-2 > 100 µM | CAKI-1 > 100 µM | CCRF-CEM > 100 µM | K562 > 100 µM | XF498 > 100 µM | OVCAR-4 > 100 µM | IGROV-1 > 100 µM | HOP-92 > 100 µM | SF-268 > 100 µM | UO-31 > 100 µM | DMS-114 > 100 µM

CCN(CC)CCCNc1nccc2c(C)c3c(cc12)c1cnccc1n3C
active: 786-0 0.0927 µM | KM-20L2 0.0682 µM | SW-620 0.0233 µM | SNB-19 0.288 µM | OVCAR-8 0.0692 µM | SK-OV-3 0.377 µM | HOP-18 < 0.01 µM | EKVX 0.294 µM | A549 0.0526 µM | SF-295 0.206 µM | OVCAR-3 0.237 µM | HCC 2998 0.0401 µM | U-251 0.367 µM | SK-MEL-28 0.403 µM | TK-10 0.444 µM | SNB-75 0.427 µM | LOX IMVI 0.0711 µM | NCI-H23 0.179 µM | DLD-1 0.0244 µM | SK-MEL-5 0.431 µM | SN12C 0.238 µM | ACHN 0.353 µM | MOLT-4 < 0.01 µM | DMS-273 0.0353 µM | COLO 205 0.249 µM | M19-MEL 0.48 µM | SNB-78 0.807 µM | HCT-116 0.0564 µM | M14 0.26 µM | NCI-H460 0.0111 µM | HT-29 0.0101 µM | SF-539 0.0173 µM | HOP-62 0.116 µM | UACC-62 0.891 µM | CAKI-1 0.144 µM | CCRF-CEM < 0.01 µM | K562 0.0211 µM | XF498 0.16 µM | OVCAR-4 0.0282 µM | IGROV-1 0.4 µM | SF-268 0.294 µM | UO-31 0.748 µM | DMS-114 0.0501 µM
0.0468 µM: HCT-15
inactive: A498 1.18 µM
